Experimental data: US20240158446A1, “CYCLIC COMPOUND HAVING SELECTIVE INHIBITORY ACTION ON KRAS OVER HRAS AND NRAS” (CHUGAI SEIYAKU KABUSHIKI KAISHA, priority 2021, published 2024)

Experiments:
[1] = molecular target: GDP-bound NRAS wild-type protein (Homo sapiens, UniProt P01111); assay: Binding to NRAS by surface plasmon resonance (SPR), Single Cycle Kinetics; conditions: ratio of KD for GDP-bound NRAS wild-type protein to KD for KRAS, SPR
[2] = tested on: human lung cancer strain NCI-H441; assay: cells; conditions: NCI-H441, 96 h, read-out: NCI-H441 IC50 (nM), NCI-H441 cell proliferation, 4 days, CellTiter-Glo;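 further: cell proliferation inhibition after four days measured by CellTiter-Glo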
[3] = molecular target: GDP-bound HRAS wild-type protein (Homo sapiens, UniProt P01112); assay: Binding to HRAS by surface plasmon resonance (SPR), Single Cycle Kinetics; conditions: ratio of KD for GDP-bound HRAS wild-type protein to KD for KRAS, SPR
Chain of GDP-bound HRAS wild-type protein (P01112 whole entry): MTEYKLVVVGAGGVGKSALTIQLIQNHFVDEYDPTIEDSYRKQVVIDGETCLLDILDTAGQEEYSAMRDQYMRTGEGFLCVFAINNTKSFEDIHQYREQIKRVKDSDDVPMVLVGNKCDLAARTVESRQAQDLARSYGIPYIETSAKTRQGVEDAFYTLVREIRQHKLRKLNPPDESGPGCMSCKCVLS

Chain of GDP-bound NRAS wild-type protein (P01111 whole entry): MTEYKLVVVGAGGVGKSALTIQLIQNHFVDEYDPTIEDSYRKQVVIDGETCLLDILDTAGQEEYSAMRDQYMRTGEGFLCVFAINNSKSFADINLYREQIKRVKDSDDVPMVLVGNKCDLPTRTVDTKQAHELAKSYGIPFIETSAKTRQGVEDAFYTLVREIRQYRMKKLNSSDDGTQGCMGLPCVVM

Row | SMILES | NRAS/KRAS (KD ratio) [1] | IC50 [2] [nM] | HRAS/KRAS (KD ratio) [3]
1 | CCO[C@@H]1C[C@H]2C(=O)NC3(CC(C)(C)C3)C(=O)N(C)[C@@H](C3CCCC3)C(=O)N(C)[C@H](C(=O)N(C)C)CC(=O)N(C)[C@@H](CC3CC3)C(=O)N[C@@H]([C@@H](C)CC)C(=O)N(C)CC(=O)N(C)[C@H]3C/C=C\CCN(C3=O)[C@@H](Cc3ccc(C)cc3)C(=O)N(C)CC(=O)N[C@@H](CCc3ccc(C(F)(F)F)c(OC)c3)C(=O)N2C1 [PP1903] | A (a compound having 10 or more and less than 20 is denoted as A) | 5.5 | B (a compound having 3 or more and less than 10 is denoted as B)
2 | CCO[C@@H]1C[C@H]2C(=O)NC3(CCC3)C(=O)N(C)[C@@H](C3CCCC3)C(=O)N(C)[C@H](C(=O)N(C)CC)CC(=O)N(C)[C@@H](CC(C)C)C(=O)N[C@@H]([C@@H](C)CC)C(=O)N(C)CC(=O)N(C)[C@H]3C/C=C\CCN(C3=O)[C@@H](Cc3ccc(C)cc3)C(=O)N(C)CC(=O)N[C@@H](CCc3ccc(C(F)(F)F)c(OC)c3)C(=O)N2C1 [PP1910] | A (a compound having 10 or more and less than 20 is denoted as A) | 9.7 | B (a compound having 3 or more and less than 10 is denoted as B)
3 | CCO[C@@H]1C[C@H]2C(=O)NC(C)(C)C(=O)N(C)[C@@H](C3CCCC3)C(=O)N(C)[C@H](C(=O)N(C)CC)CC(=O)N(C)[C@@H](CC(C)C)C(=O)N[C@@H]([C@@H](C)CC)C(=O)N(C)CC(=O)N(C)[C@H]3C/C=C\CCN(C3=O)[C@@H](Cc3ccc(C(F)(F)F)cc3)C(=O)N(C)CC(=O)N[C@@H](CCc3cc(F)c(C(F)(F)F)c(F)c3)C(=O)N2C1 [PP1937] | A (a compound having 10 or more and less than 20 is denoted as A) | 6.8 | A (a compound having 10 or more and less than 20 is denoted as A)
4 | CCCN(C)C(=O)[C@@H]1CC(=O)N(C)[C@@H](CC(C)C)C(=O)N[C@@H]([C@@H](C)CC)C(=O)N(C)CC(=O)N(C)[C@H]2C/C=C\CCN(C2=O)[C@@H](Cc2ccc(C(F)(F)F)cc2)C(=O)N(C)CC(=O)N[C@@H](CCc2cc(F)c(C(F)(F)F)c(F)c2)C(=O)N2C[C@H](OCC)C[C@H]2C(=O)NC2(COC2)C(=O)N(C)[C@@H](C2CCCC2)C(=O)N1C [PP1938] | AA (a compound having 20 or more is denoted as AA) | 34.6 | A (a compound having 10 or more and less than 20 is denoted as A)
5 | CC[C@H](C)[C@@H]1NC(=O)[C@H](C2CC2)N(C)C(=O)C[C@@H](C(=O)N(C)CC)N(C)C(=O)[C@H](C2CCCC2)N(C)C(=O)C2(CC(C)(C)C2)NC(=O)[C@@H]2C[C@H](C)CN2C(=O)[C@H](CCc2cc(F)c(C(F)(F)F)c(F)c2)NC(=O)CN(C)C(=O)[C@H](Cc2ccc(C(F)(F)F)cc2)N2CC/C=C\C[C@@H](C2=O)N(C)C(=O)CN(C)C1=O [PP1980] | A (a compound having 10 or more and less than 20 is denoted as A) | 30.1 | B (a compound having 3 or more and less than 10 is denoted as B)
6 | CCCOC[C@H]1C(=O)N[C@@H]([C@@H](C)CC)C(=O)N(C)CC(=O)N(C)[C@H]2C/C=C\CCN(C2=O)[C@@H](Cc2ccc(C(F)(F)F)cc2)C(=O)N(C)CC(=O)N[C@@H](CCc2ccc(C(F)(F)F)c(OC)c2)C(=O)N2C[C@@H](C)C[C@H]2C(=O)NC2(CC(C)(C)C2)C(=O)N(C)[C@@H](C2CCCC2)C(=O)N(C)[C@H](C(=O)N(C)C)CC(=O)N1C [PP1997] | A (a compound having 10 or more and less than 20 is denoted as A) | 14.2 | B (a compound having 3 or more and less than 10 is denoted as B)
7 | CCCN(C)C(=O)[C@@H]1CC(=O)N(C)[C@@H](C2CCC2)C(=O)N[C@@H]([C@@H](C)CC)C(=O)N(C)CC(=O)N(C)[C@H]2C/C=C\CCN(C2=O)[C@@H](Cc2ccc(C(F)(F)F)cc2)C(=O)N(C)CC(=O)N[C@@H](CCc2cc(F)c(C(F)(F)F)c(F)c2)C(=O)N2C[C@H](OCC)C[C@H]2C(=O)NC2(CCC2)C(=O)N(C)[C@@H](C2CCCC2)C(=O)N1C [PP1998] | A (a compound having 10 or more and less than 20 is denoted as A) | 16.1 | B (a compound having 3 or more and less than 10 is denoted as B)
8 | CCCN(C)C(=O)[C@@H]1CC(=O)N(C)[C@@H](CC(F)F)C(=O)N[C@@H]([C@@H](C)CC)C(=O)N(C)CC(=O)N(C)[C@H]2C/C=C\CCN(C2=O)[C@@H](Cc2ccc(C(F)(F)F)cc2)C(=O)N(C)CC(=O)N[C@@H](CCc2cc(F)c(C(F)(F)F)c(F)c2)C(=O)N2C[C@@H](C)C[C@H]2C(=O)NC2(CCC2)C(=O)N(C)[C@@H](C2CCCC2)C(=O)N1C [PP2000] | A (a compound having 10 or more and less than 20 is denoted as A) | 17.7 | B (a compound having 3 or more and less than 10 is denoted as B)
9 | CCCOC[C@H]1C(=O)N[C@@H]([C@@H](C)CC)C(=O)N(C)CC(=O)N(C)[C@H]2C/C=C\CCN(C2=O)[C@@H](Cc2ccc(C(F)(F)F)cc2)C(=O)N(C)CC(=O)N[C@@H](CCc2cc(F)c(C(F)(F)F)c(F)c2)C(=O)N2C[C@@H](C)C[C@H]2C(=O)NC2(CCC2)C(=O)N(C)[C@@H](C2CCCC2)C(=O)N(C)[C@H](C(=O)N(C)CCC)CC(=O)N1C [PP2008] | A (a compound having 10 or more and less than 20 is denoted as A) | 15.2 | A (a compound having 10 or more and less than 20 is denoted as A)
10 | CCCOC[C@H]1C(=O)N[C@@H]([C@@H](C)CC)C(=O)N(C)CC(=O)N(C)[C@H]2C/C=C\CCN(C2=O)[C@@H](Cc2ccc(C(F)(F)F)cc2)C(=O)N(C)CC(=O)N[C@@H](CCc2ccc(C(F)(F)F)c(OC)c2)C(=O)N2C[C@H](OCC)C[C@H]2C(=O)NC2(CCC2)C(=O)N(C)[C@@H](C2CCCC2)C(=O)N(C)[C@H](C(=O)N(C)CCC)CC(=O)N1C [PP2017] | A (a compound having 10 or more and less than 20 is denoted as A) | 2.5 | A (a compound having 10 or more and less than 20 is denoted as A)
11 | CCO[C@@H]1C[C@H]2C(=O)NC3(CCC3)C(=O)N(C)[C@@H](C3CCCC3)C(=O)N(C)[C@H](C(=O)N(C)CC)CC(=O)N(C)[C@@H](C3CCC3)C(=O)N[C@@H]([C@@H](C)CC)C(=O)N(C)CC(=O)N(C)[C@H]3C/C=C\CCN(C3=O)[C@@H](Cc3ccc(C(F)(F)F)cc3)C(=O)N(C)CC(=O)N[C@@H](CCc3ccc(C(F)(F)F)c(OC)c3)C(=O)N2C1 [PP2022] | A (a compound having 10 or more and less than 20 is denoted as A) | 2.7 | A (a compound having 10 or more and less than 20 is denoted as A)
12 | CCCN(C)C(=O)[C@@H]1CC(=O)N(C)[C@@H](C2CCC2)C(=O)N[C@@H]([C@@H](C)CC)C(=O)N(C)CC(=O)N(C)[C@H]2C/C=C\CCN(C2=O)[C@@H](Cc2ccc(C(F)(F)F)cc2)C(=O)N(C)CC(=O)N[C@@H](CCc2ccc(C(F)(F)F)c(OC)c2)C(=O)N2C[C@H](OCC)C[C@H]2C(=O)NC2(CCC2)C(=O)N(C)[C@@H](C2CCCC2)C(=O)N1C [PP2023] | A (a compound having 10 or more and less than 20 is denoted as A) | 10.5 | B (a compound having 3 or more and less than 10 is denoted as B)
13 | CCCN(C)C(=O)[C@@H]1CC(=O)N(C)[C@@H](CC(F)F)C(=O)N[C@@H]([C@@H](C)CC)C(=O)N(C)CC(=O)N(C)[C@H]2C/C=C\CCN(C2=O)[C@@H](Cc2ccc(C(F)(F)F)cc2)C(=O)N(C)CC(=O)N[C@@H](CCc2ccc(C(F)(F)F)c(OC)c2)C(=O)N2C[C@@H](C)C[C@H]2C(=O)NC2(CCC2)C(=O)N(C)[C@@H](C2CCCC2)C(=O)N1C [PP2024] | A (a compound having 10 or more and less than 20 is denoted as A) | 10.1 | B (a compound having 3 or more and less than 10 is denoted as B)
14 | CCCN(C)C(=O)[C@@H]1CC(=O)N(C)[C@@H](COCC)C(=O)N[C@@H]([C@@H](C)CC)C(=O)N(C)CC(=O)N(C)[C@H]2C/C=C\CCN(C2=O)[C@@H](Cc2ccc(C(F)(F)F)cc2)C(=O)N(C)CC(=O)N[C@@H](CCc2ccc(C(F)(F)F)c(OC)c2)C(=O)N2C[C@@H](C)C[C@H]2C(=O)NC2(CCC2)C(=O)N(C)[C@@H](C2CCCC2)C(=O)N1C [PP2025] | A (a compound having 10 or more and less than 20 is denoted as A) | 13.4 | B (a compound having 3 or more and less than 10 is denoted as B)
15 | CCCOC[C@H]1C(=O)N[C@@H]([C@@H](C)CC)C(=O)N(C)CC(=O)N(C)[C@H]2C/C=C\CCN(C2=O)[C@@H](Cc2ccc(C(F)(F)F)cc2)C(=O)N(C)CC(=O)N[C@@H](CCc2ccc(C(F)(F)F)c(OC)c2)C(=O)N2C[C@@H](C)C[C@H]2C(=O)NC2(CCC2)C(=O)N(C)[C@@H](C2CCCC2)C(=O)N(C)[C@H](C(=O)N(C)CC)CC(=O)N1C [PP2027] | A (a compound having 10 or more and less than 20 is denoted as A) | 14 | B (a compound having 3 or more and less than 10 is denoted as B)
16 | CCCOC[C@H]1C(=O)N[C@@H]([C@@H](C)CC)C(=O)N(C)CC(=O)N(C)[C@H]2C/C=C\CCN(C2=O)[C@@H](Cc2ccc(C(F)(F)F)cc2)C(=O)N(C)CC(=O)N[C@@H](CCc2ccc(C(F)(F)F)c(OC)c2)C(=O)N2C[C@@H](C)C[C@H]2C(=O)NC2(CCC2)C(=O)N(C)[C@@H](C2CCCC2)C(=O)N(C)[C@H](C(=O)N(C)CCC)CC(=O)N1C [PP2028] | A (a compound having 10 or more and less than 20 is denoted as A) | 17.5 | B (a compound having 3 or more and less than 10 is denoted as B)
